These results are taken from patent US20260015365A1, “PRODRUGS OF SOMATOSTATIN RECEPTORS SUBTYPE 4 (SSTR4) AGONISTS AND THEIR APPLICATIONS” (Humanwell Pharmaceutical US, Inc., priority 2024, published 2026).

Broadly, the AUC(0-inf) is the area under the concentration-time curve extrapolated to infinity. Low values mean low exposure, high ones high exposure. For orientation: AUC(0-t) means exposure summed from dosing to a finite time, without extrapolation to infinity. Low values mean low exposure, high ones high exposure. The MRT inf is the average time that molecules of a dose stay in the body. Broadly, the half-life is the time needed for the level to fall by half in the phase considered. A higher half-life goes with slow loss. For orientation: Cmax means the maximum level reached in the sampled fluid or tissue. One may read the Tmax as the time from dosing to the highest level.

A short description of this series: Pharmacokinetics in SD rats after intravenous injection and single oral gavage, plasma LC-MS/MS. It counts as in vivo. The following applies: male, rat. The protocol: SD rats (male, 6-8 weeks old, from JH Laboratory Animal Co., Ltd.) were used for intravenous injection and single oral gavage administration. Plasma samples were collected at 0.083, 0.25, 0.5, 1, 2, 4, 8, and 24 hours post-dose.
The plasma samples were obtained by centrifugation (2000 rpm, 4° C., 5 min). Samples were added to a 96-well plate and mixed with 10 volumes of acetonitrile containing an internal standard. After mixing and shaking, the mixture was centrifuged (5800 rpm, 4° C., 10 min), and the supernatant was transferred to a new 96-well plate.
The resulting solution was injected into the LC-MS/MS system. Drug concentrations in plasma were quantified using the LC-MS/MS method, and pharmacokinetic parameters were calculated accordingly.

`CC(C)(NC(=O)[C@H]1[C@@H]2CNC[C@H]1C2)c1ncc2c(Br)cccn12` [compound 1]: for the setting “IV, 1 mg/kg”, the AUC(0-inf) came to 370 ng·h/mL, the AUC(0-t) worked out at 361 ng·h/mL, the MRT inf stood at 0.879 h and the clearance was 45.2 mL/min/kg. The compound also showed a half-life (IV, 1 mg/kg) of 0.814 h. For the setting “IV, 1 mg/kg, read-out: Vss”, the Vd came to 2.38 L/kg. Further, for the setting “PO, 3 mg/kg”, the concentration peaked (Cmax) at 36.3 ng/mL, the Tmax was 1.42 h and the half-life was 2.43 h.
